Results on 24 compounds are retold here after publication PMC8286840, “Identifying SARS-CoV-2 antiviral compounds by screening for small molecule inhibitors of Nsp3 papain-like protease” (Biochemical Journal, 2021).

Where a name gives a salt, the structure may show the parent alone. Read-outs that look alike come from different tables or passages of the source.

Test [1] concerns the target T1, SARS-CoV-2 PLpro (nsp3 1564–1878) (Severe acute respiratory syndrome coronavirus 2, UniProt P0DTD1). In words: biochemical. On the set-up: FRET-quenched peptide (Pro3) cleavage by PLpro, 10 min pre-incubation, slope over 20 min, normalised to no-compound control. The settings on record: low concentration screen, read-out: % of control remaining.
For test [2], the target named is T1, SARS-CoV-2 PLpro (nsp3 1564–1878). In words: biochemical. On the set-up: FRET-quenched peptide (Pro3) cleavage by PLpro, 10 min pre-incubation, slope over 20 min, normalised to no-compound control. To be noted: high concentration screen, read-out: % of control remaining.

Regarding `CN=c1nc(-c2ccccc2)n(-c2ccccc2)s1` [SCH-202676 hydrobromide], the remaining activity at 1.25 µM in test [1] (Well no.=1314) came out at 98.7%. The remaining activity at 3.75 µM in test [2] (Well no.=1314) was found to be 97.4%.

For the compound `CS(=O)(=O)c1ccc(C2=C(c3ccccc3)C(=O)OC2)cc1` [Rofecoxib], in test [1] (Well no.=1724), the remaining activity at 1.25 µM amounted to 101%. Moreover, in test [2] (Well no.=1724), the remaining activity at 3.75 µM turned out to be 100%.

For the compound `Nc1ccc(S(=O)(=O)Nc2nccs2)cc1` [Sulfathiazole], the remaining activity at 1.25 µM in test [1] (Well no.=4937) was 98.9%. Moreover, the remaining activity at 3.75 µM in test [2] (Well no.=4937) came out at 95.6%.

In the case of `Nc1nc(O)c2ncn(CCC(CO)CO)c2n1` [Penciclovir], the remaining activity at 1.25 µM in test [1] (Well no.=2099) was determined as 97.6%; in test [1] (Well no.=8002) it was 105%. The remaining activity at 3.75 µM in test [2] (Well no.=2099) turned out to be 98.9%; in test [2] (Well no.=8002), 102%.

With `O=C(O)CNC(=O)c1ccccc1` [Hippuric acid], in test [1] (Well no.=7309), the remaining activity at 1.25 µM turned out to be 109%. In addition, the remaining activity at 3.75 µM in test [2] (Well no.=7309) amounted to 106%.

Turning to `Cc1cccc(/C=C/c2ccccc2)n1` [SIB 1893], the remaining activity at 1.25 µM in test [1] (Well no.=1419) came out at 96.6%. Besides, in test [2] (Well no.=1419), the remaining activity at 3.75 µM came to 95.7%.

On to `Cc1cc(Cc2cc(C)cc(C(C)(C)C)c2O)c(O)c(C(C)(C)C)c1` [GERI-BP002A], for which the remaining activity at 1.25 µM in test [1] (Well no.=3907) stood at 104%. In addition, the remaining activity at 3.75 µM in test [2] (Well no.=3907) turned out to be 97.7%.

Consider `COc1cc2c(=O)c(-c3ccc(O)cc3)coc2cc1O` [Glycitein], for which the remaining activity at 1.25 µM in test [1] (Well no.=6248) was determined as 98.2%. In addition, in test [2] (Well no.=6248), the remaining activity at 3.75 µM is 101%.

In the case of `Nc1[nH]nc2nc3ccccc3nc12` [NSC 693868 - 1H-Pyrazolo[3,4-b]quinoxalin-3-amine], the remaining activity at 1.25 µM in test [1] (Well no.=2476) came out at 95.5%.

With `O=C1CCCN1CC#CCN1CCCC1` [Oxotremorine sesquifumarate salt], in test [1] (Well no.=946), the remaining activity at 1.25 µM is 103%.

As to `O=C(c1ccc(Nc2nccc(-c3cc4ccccc4s3)n2)cc1)N1CCC(N2CCCC2)CC1` [IKK Inhibitor VII], the remaining activity at 1.25 µM in test [1] (Well no.=2439) worked out at 103%.

As for `CC1(C)[C@H](C(=O)O)N2C(=O)C[C@H]2S1(=O)=O` [Sulbactam], the remaining activity at 1.25 µM is 106% in test [1] (Well no.=2023) and 101% in test [1] (Well no.=7450).

Regarding `CN(C)c1ccc(O)c2c1C[C@H]1C[C@H]3[C@H](N(C)C)C(O)=C(C(N)=O)C(=O)[C@@]3(O)C(O)=C1C2=O`, in test [1] (Well no.=3663), the remaining activity at 1.25 µM is 102%.

With `Cn1c(=O)c2nc[nH]c2n(C)c1=O` [Theophylline], the remaining activity at 1.25 µM in test [1] (Well no.=1235) turned out to be 97.1%; in test [1] (Well no.=6249), 110%; in test [1] (Well no.=8277) it was 98.3%.

In the case of `CC(NC(C)(C)C)C(=O)c1cccc(Cl)c1` (stereo not shown) [Amfebutamone], the remaining activity at 1.25 µM in test [1] (Well no.=1694) is 98.7%.

As for `CC1(C)C(=O)N(CCN2CCC(C(=O)c3ccc(F)cc3)CC2)c2ccccc21` [LY-310,762 hydrochloride], in test [1] (Well no.=833), the remaining activity at 1.25 µM amounted to 99.6%.

Take `CN(C)CCC(c1ccc(Cl)cc1)c1ccccn1` (racemic): in test [1] (Well no.=124), the remaining activity at 1.25 µM is 92.9%.

With `CCCCC[C@H](O)/C=C/[C@@H]1[C@@H](C/C=C\CCCC(=O)O)[C@@H](O)C[C@H]1O` [Prostaglandin F2a], the remaining activity at 1.25 µM in test [1] (Well no.=3094) is 107%.

Take `COc1cc2ncnc(Nc3ccc(F)c(Cl)c3)c2cc1OCCCN1CCOCC1` [Iressa - N-(3-chloro-4-fluoro-phenyl)-7-methoxy-6-(3-morpholin-4-ylpropoxy)quinazolin-4-amine]: in test [1] (Well no.=2670), the remaining activity at 1.25 µM came out at 97.6%.

For the compound `CN(C)CCCN1c2ccccc2Sc2ccccc21` [Promazine (hydrochloride)], the remaining activity at 1.25 µM in test [1] (Well no.=6711) turned out to be 103%.

For the compound `Cc1ccc(OC[C@H](O)[C@@H](C)NC(C)C)c2c1CCC2` [ICI 118,551 (hydrochloride)], in test [1] (Well no.=7035), the remaining activity at 1.25 µM came to 106%.

Regarding `CC(C)[N+]1(C)[C@@H]2CC[C@H]1C[C@@H](OC(=O)C(CO)c1ccccc1)C2` (stereo partly shown) [Ipratropium (bromide)], the remaining activity at 1.25 µM in test [1] (Well no.=6175) came out at 100%.

Consider `Cc1cccc2c3c(ccc12)C1=C(C(=O)C3=O)C(C)CO1` (stereo not shown) [Dihydrotanshinone], for which, in test [1] (Well no.=3569), the remaining activity at 1.25 µM was 102%.

In the case of `CN(C)C(=O)Oc1cccc([N+](C)(C)C)c1` [Neostigmine bromide], the remaining activity at 1.25 µM in test [1] (Well no.=853) was found to be 105%.
